Data reported in ChEMBL document CHEMBL4406878, “Antiviral efficacy of bromo-anilino substituents of 4,5-dihydrofuran-3-carboxylate compound CW-33 against Japanese encephalitis virus” (Bioorg Med Chem Lett, 2019).
Calls of active or inactive are those of the source. The rule behind the calls is not given here.

Key:
[1] = Cytotoxicity against human TE671 cells assessed as reduction in cell viability after 48 hrs by MTT assay; type: cell-based, TE-671
[2] = test system: Japanese encephalitis virus; test: Antiviral activity against Japanese encephalitis virus infected in human TE671 cells assessed as reduction in virus-induced cytopathic effect at 10 to 100 uM treated immediately post-infection measured at 36 hrs post-infection by inverted microscopic analysis; type: functional, organism-based
[3] = test system: Japanese encephalitis virus; test: Antiviral activity against Japanese encephalitis virus infected in human TE671 cells assessed as decline in infected cell apoptotic fraction by measuring proportion of cells at subG1 phase treated immediately post-infection measured at 36 hrs post-infection by PI-staining based flow cytometric analysis; type: functional, organism-based; conditions: for IC50: TE-671, 36 h
[4] = test system: Japanese encephalitis virus; test: Antiviral activity against Japanese encephalitis virus infected in human TE671 cells assessed as reduction in virus infectivity by measuring decrease in NS3-positive cells treated immediately post-infection measured after 24 hrs by DAPI-staining based immunofluorescence analysis; type: functional, organism-based; conditions: for IC50: TE-671, 24 h
[5] = test system: Japanese encephalitis virus; test: Antiviral activity against Japanese encephalitis virus infected in human TE671 cells assessed as inhibition of intracellular virion production at 10 uM measured at 24 to 48 hrs post-infection by plaque assay; type: functional, organism-based
[6] = test system: Japanese encephalitis virus; test: Antiviral activity against Japanese encephalitis virus infected in human TE671 cells assessed as inhibition of extracellular viral particles production by measuring reduction in virus yield measured after 36 hrs by plaque assay; type: functional, organism-based; conditions: for IC50: TE-671, 36 h
[7] = Therapeutic index, ratio of CC50 for human TE671 cells to IC50 for antiviral activity against Japanese encephalitis virus infected in human TE671 cells assessed as reduction in virus yield by plaque assay; type: toxicity, cell-based; conditions: read-out: Ratio CC50/IC50
[8] = test system: Japanese encephalitis virus; test: (§1) Antiviral activity against Japanese encephalitis virus infected in human TE671 cells assessed as reduction in virus entry at early stage by measuring decrease in NS3-positive cells treated immediately after viral infection followed by virus/compound mixture wash-out at 1 hr post-incubation followed by culturing of cells for 24 hrs by DAPI-staining based immunofluorescence analysis; type: functional, organism-based; conditions: TE-671
[9] = test system: Japanese encephalitis virus; test: Inhibition of synthesis of Japanese encephalitis virus RNA genome transfected as EGFP replicon in human TE671 cells assessed as lowered ratio of negative to positive sense strand RNA at 10 uM treated at 1 hr post-transfection and measured at 36 hrs post treatment by RT-PCR analysis; type: functional, organism-based
[10] = test system: Japanese encephalitis virus; test: as §1, with “late” for “early”, “at 1 hr post-infection” for “immediately after viral infection”; type: functional, organism-based; conditions: TE-671
[11] = test system: Japanese encephalitis virus; test: Antiviral activity against Japanese encephalitis virus infected in human TE671 cells assessed as reduction in viral yield treated immediately post-viral infection measured at 72 hrs post-infection by plaque assay; type: functional, organism-based; conditions: TE-671, 72 h
Enterovirus A71 = test: Antiviral activity against Enterovirus A71 infected in human RD cells assessed as reduction in viral yield measured at 48 hrs post-infection by plaque reduction assay; type: functional, organism-based; conditions: Enterovirus A
[12] = test system: Japanese encephalitis virus; test: Antiviral activity against Japanese encephalitis virus infected in hamster BHK-21 cells assessed as reduction in viral yield treated immediately post-viral infection measured at 72 hrs post-infection by plaque assay; type: functional, organism-based; conditions: BHK-21, 72 h
[13] = test system: Japanese encephalitis virus; test: Antiviral activity against Japanese encephalitis virus infected in human TE671 cells assessed as reduction in virus entry at late stage by measuring decrease in NS3-positive cells at 1 to 10 uM treated at 1 hr post-infection followed by virus/compound mixture wash-out at 1 hr post-incubation followed by culturing of cells for 24 hrs by DAPI-staining based immunofluorescence analysis; type: functional, organism-based

Row | Structure (SMILES) | CC50 at 48 h [1] | inhibition [2] | inhibition [3] | IC50 [3] | inhibition [4] | IC50 [4] | inhibition [5] | inhibition [6] | IC50 [6] | selectivity ratio [7] | IC50 [8] | inhibition [9] | IC50 [10] | IC50 [11] | IC50 (Enterovirus A71) | IC50 [12] | inhibition [13]
1 | CCOC(=O)C1=C(Nc2ccccc2Br)OCC1=O | 232 µM | Active | Dose-dependent effect | 3.2 µM | Dose-dependent effect | 0.2 µM | Active | Dose-dependent effect | 4.6 µM | 50.2 | 0.2 µM | Active | 10.2 µM |  |  |  | 
2 | CCOC(=O)C1=C(Nc2ccccc2Cl)OCC1=O | > 100 µM | Active | Dose-dependent effect | 50.5 µM |  |  |  |  |  |  |  |  |  |  |  |  | 
3 | CCOC(=O)C1=C(Nc2cc(C)cc(C)c2)OCC1=O |  |  |  |  |  |  |  |  |  |  |  |  |  | 12.7 µM | 200 µM | 12.7 µM | 
4 | CCOC(=O)C1=C(Nc2cccc(Br)c2)OCC1=O | 151 µM | Active | Dose-dependent effect | 3.1 µM | Dose-dependent effect | 3.2 µM |  | Dose-dependent effect | 12.1 µM | 12.4 |  | Active |  |  |  |  | Active
5 | CCOC(=O)C1=C(Nc2cccc(Cl)c2)OCC1=O | > 100 µM | Active | inactive |  |  |  |  |  |  |  |  |  |  |  |  |  | 
6 | CCOC(=O)C1=C(Nc2ccc(Br)cc2)OCC1=O | 129 µM | Active | Dose-dependent effect | 2 µM | Dose-dependent effect | 0.4 µM |  | Dose-dependent effect | 7.8 µM | 16.6 |  | inactive |  |  |  |  | Active
7 | CCOC(=O)C1=C(Nc2ccc(Cl)cc2)OCC1=O | > 100 µM | Active | inactive |  |  |  |  |  |  |  |  |  |  |  |  |  | 
